Laboratory results as given in patent US20210395674A1, “COMPOSITION FOR INCREASING BIOLOGICAL ACTIVITY OF STEM CELLS USING MIXTURE 4F” (YOUTH BIO GLOBAL CO., LTD., priority 2019, published 2021).

System: umbilical cord blood monocytes (MNCs) / EPC colonies
Assay: Colony formation, proliferative ability and cell cycle in xeno-free culture
Format: cell-based, human
Experimental: FIG. […] Specifically, the isolation and culture of […] (EPC) is performed by density difference centrifugation using ficoll after receiving umbilical cord blood (IRB approval number 05-2017-053, 50 cc or more) of mothers who visited the Department of Obstetrics and Gynecology, Pusan National University, Yangsan to obtain monocytes (MNCs). After red blood cell lysis, the cells were seeded (7>10^6 cells/well) in a 6-well plate coated with fibronectin (1 μg/cm^2), and were cultured for 5 days in an atmosphere of 5% CO2 at 37° C. under conditions of each medium ([…] endothelial cell differentiation (EGM2 media)). […] After culture, the medium was exchanged every day, and the EPC colony attachment was identified and subcultured when 70% or more thereof is under a confluent state. According to the type of culture medium, the cells obtained by culturing with the conventional vascular endothelial cell differentiation medium […]
[…] Example 11 were separated into single cells, and proliferative ability, cell cycle change, and colony formation ability were analyzed in the same manner as in Example 6. For the control group of this example, cells cultured by the conventional culture method (L-EPC) and cells cultured in a medium containing each single component in a xeno-free medium [a group treated with fucoidan (Fu, 0.1 μg/ml), a group treated with a tauroursodeoxycholic acid (TD, 25 μM), a group treated with oleuropein (OLP, 0.5 μM), and a group treated with a vascular endothelial growth factor (VEGF, 100 ng/ml)]were used.

vascular endothelial growth factor
colony formation ability (EPC colonies) (xeno-free medium): EPC colonies were identified | division time of the cells (xeno-free medium): prolonged | expression of VE-cadherin (xeno-free medium with single component): low
